Laboratory results from patent US20070009597A1, “Active substance combination comprising a compound with npy receptor affinity and a compound with 5-ht6 receptor affinity” (LABORATORIOS DEL DR. ESTEVE S.A., priority 2003, published 2007).

melting point [°C] | SMILES
166 to 168 | CN(C)CCn1ccc2cc(NS(=O)(=O)c3cccc4nsnc34)ccc21 [Example 10e, N-[1-(2-dimethylaminoethyl)-1H-indole-5-yl]-benzo[1,2,5]thiadiazole-4-sulfonamide]
138 to 140 | O=C(CN1CCC(Nc2ccccc2CO)CC1)Nc1ccc2c(c1)CCC2=O
